Reference: patent US20130137724A1, “PHARMACEUTICAL COMPOSITIONS COMPRISING 7-(1H-IMIDAZOL-4-YLMETHYL)-5,6,7,8-TETRAHYDRO-QUINOLINE FOR RETINAL NEUROPROTECTION” (ALLERGAN, INC., priority 2011, published 2013)

Experiments:
α2A-adrenergic receptor = target: T1, α2A-adrenergic receptor (Homo sapiens, UniProt P08913); settings: for Percent of Bmax Decrease: 1 μM compound, 24 hours, HEK 293T cells stably transfected with α2A-adrenergic receptor; for down-regulation of alpha2A receptor / receptor density: binding studies, result in words
T1 sequence (P08913 1-465): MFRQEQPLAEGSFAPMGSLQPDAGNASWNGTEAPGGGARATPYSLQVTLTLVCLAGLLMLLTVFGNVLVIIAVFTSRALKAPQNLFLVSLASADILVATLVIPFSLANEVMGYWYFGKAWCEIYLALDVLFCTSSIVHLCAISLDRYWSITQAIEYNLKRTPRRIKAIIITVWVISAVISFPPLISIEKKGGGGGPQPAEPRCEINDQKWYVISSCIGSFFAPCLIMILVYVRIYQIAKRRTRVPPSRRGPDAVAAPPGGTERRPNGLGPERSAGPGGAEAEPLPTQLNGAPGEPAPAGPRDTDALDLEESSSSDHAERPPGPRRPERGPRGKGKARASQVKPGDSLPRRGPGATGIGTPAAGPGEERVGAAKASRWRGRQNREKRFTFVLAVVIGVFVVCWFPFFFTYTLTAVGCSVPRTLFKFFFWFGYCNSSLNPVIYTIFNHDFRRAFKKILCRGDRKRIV
Experimental: Human embryonic kidney (HEK) 293T cells stably transfected with the α2A-adrenergic receptor were grown to 50-60% confluency on T-175 culture flasks in DMEM (Gibco, cat. #11995), 10% FBS (Gibco, cat. #16140), 0.25 ug/mL puromycin (Sigma, cat. #P-8833), and 1% antibiotic-antimycotic (Gibco, cat. #15240) maintained at 37° C. and 5% CO2. […] The cells were then washed with room temperature Dulbecco's phosphate buffered saline (DPBS; Gibco, cat. #14190).
Cells were harvested with 4° C. Tris-EDTA buffer [50 mM Tris-HCl, 5 mM EDTA; pH 7.4] and centrifuged at 5,000×g for 5 minutes at 4° C. Membrane preparation was conducted by resuspending the cell pellets in 4° C. Tris-EDTA buffer and lysed with a Polytron disrupter two times (setting 7, 5 seconds each). The lysed suspension was then centrifuged at ˜35,000×g for 32 minutes at 4° C. After decanting the supernatant, the pelleted material was further lysed in 4° C. Tris buffer [50 mM Tris-HCl; pH 8.0] using the Polytron disrupter (setting 4, 5 seconds). Membranes were then aliquoted, pelleted at ˜37,000×g for 32 minutes at 4° C., and stored at −80° C. until use.
Membranes were thawed and resuspended using a Polytron disrupter in 4° C. HBSS-HEPES buffer [1 part 1M HEPES: 5 parts 10× Hank's Balanced Salt Solution: 43.8 parts H2O; pH 7.4 with KOH] and quantified via Bradford assay. The quantified protein was further diluted with HBSS-HEPES buffer to achieve a 100 μg/mL concentration. Membrane suspension was plated in a 96-well plate at 200 μLs/well ±10 μM phentolamine HCl (Sigma, cat. #P-7547) and [Methyl-^3H] Rauwolscine (15 nM to 0.05 nM; PerkinElmer, cat. #NET722250UC). The assay plate was slowly shaken and incubated at 25° C. for ninety minutes. Immediately following the above incubation, the assays were terminated by vacuum filtration over GF/B filters. Filters were then washed with 4° C. HBSS-HEPES buffer. The incorporated [Methyl-^3H] Rauwolscine was determined using a Microbeta 1450B liquid scintillation counter after the plates had dried overnight.

alpha 2A receptor = target: T2, alpha 2A receptor (Homo sapiens, UniProt P08913); assay: biochemical
T2 sequence (P08913 1-465): T1 sequence (P08913 1-465)
Experimental: The extent of binding is a measure of receptor activation. […] Membranes were thawed and resuspended using a Polytron disrupter in 4° C. membrane buffer and quantified via Bradford assay. […] The above mixture was then aliquoted, 50 μL/well, in a 96 well plate, combined with an equal volume of test compound dissolved in assay buffer [50 mM Tris-HCl, 100 mM NaCl, 5 mM MgCl2, 1 mM EDTA, and 1 mM DTT, pH 7.4 and 4° C.], and allowed to incubate for 5 minutes. […] Assays were terminated by vacuum filtration over GF/B filters blocked with 0.5% BSA.

[1] = test system: visual acuity in normal DB rabbits; assay: Visual enhancement model, spatial sweep visual evoked potential (sVEP) acuity; type: in vivo, rabbit; settings: intravenous route, 10-30 minutes post-dose
Experimental: Spatial sweep visual evoked potential (sVEP) acuity. Spatial sVEP acuity was assessed with PowerDiva software version 1.8. Recordings were made bilaterally in conscious animals.

[2] = Drug level in the retina with continuous subcutaneous pump dosing; type: in vivo, rat; settings: 0.3 mg/kg/day and 1 mg/kg/day, rats
[3] = test system: blue light induced retinal damage; assay: Blue light model of retinal degeneration, retinal thickness by OCT; type: in vivo, rat; settings: subcutaneous pump 0.3 and 1 mg/kg/day from two days before exposure, OCT 7 days post blue light, Sprague-Dawley rats
Experimental: Twenty 4-month old male Sprague-Dawley rats (body weight 470-550 g) were used in this study. The animals were exposed to room light on a 12 hour light/12 hour dark cycle before the experiment. All animals were dark adapted overnight (16-20 hours) before blue light. Under the intensity of 6100-6500 lux, rats were exposed to blue light for 4 hours. After the blue light, rats were placed in the dark for another 3 days before returning to normal 12 hour light/12 hour dark. Ocular Coherence Tomography (OCT) measurement was performed at 7 days post blue light exposure.
Histology studies have shown that the reduction in retinal thickness is attributable to loss of photoreceptors.

| Structure (SMILES) | Percent of Bmax Decrease (α2A-adrenergic receptor) [%] | down-regulation of alpha2A receptor / receptor density (α2A-adrenergic receptor) | EC50 (alpha 2A receptor) [nM] | Relative Efficacy (alpha 2A receptor; efficacy relative to the full agonist brimonidine) | visual acuity (sVEP) [1] | drug levels in the retina [2] [ng/g] | damage caused by blue light (retinal thickness by OCT) [3] |
| --- | --- | --- | --- | --- | --- | --- | --- |
| Brc1c(N=C2NCCN2)ccc2nccnc12 [Brimonidine, (5-bromo-quinoxalin-6-yl)-imidazolidin-2-ylidene-amine, reference compound] | −45 | induced a strong reduction in the alpha 2A receptor density |  |  |  |  |  |
| c1cnc2c(c1)CC[C@H](Cc1c[nH]cn1)C2 [(S)-(+)-7-(1H-Imidazol-4-ylmethyl)-5,6,7,8-tetrahydro-quinoline] | −25 | induces very little down-regulation of alpha2A receptor | < 1 | 0.6 | enhances visual acuity | 1.3 | significantly reduced the damage caused by blue light |
